Where a name gives a salt, the structure may show the parent alone.
Key:
Format in all cases: physicochemical
[1] = Physical stability, storage for 14 days (XRPD, thermogravimetry); conditions: stored 14 days under conditions (A) to (D)
Procedure: Representative samples of the crystalline salt of (R)-3-(6-aminopyridin-3-yl)-2-(1-cyclohexyl-1H-imidazol-4-yl)propionic acid ethyl ester with naphthalene-1,5-disulfonic acid prepared as in example 1 are stored for 14 days under the conditions (A), (B), (C) and (D): • (A) 50° C. • (B) 50° C. and 80% relative atmospheric humidity • (C) 80° C. • (D) 80° C. and 80% relative atmospheric humidity Results:
Only a slight loss in mass during the thermogravimetric measurements (apparatus TA Instruments: TGA Q500, atmospheric nitrogen; rate 10° C./min) is observed, which is attributed to the release of water from the crystals.

[2] = Chiral stability, storage for 14 days (chiral HPLC)
Procedure: Representative samples of the crystalline salt of (R)-3-(6-aminopyridin-3-yl)-2-(1-cyclohexyl-1H-imidazol-4-yl)propionic acid ethyl ester with naphthalene-1,5-disulfonic acid prepared as in example 1 are stored for 14 days under the conditions (A), (B), (C) and (D) described in example 4:
The measurements were carried out using chromatography on chiral phase as described in example 1.
Chiral HPLC: (Chiralcel OD-H/84 (250×4.6 mm), heptane:Isopropanol:Acetonitrile 15:1:0.5+0.1% diethylamine (DEA), 30° C., 1 ml/min): Rt=27.01 min.

[3] = Salt screening of the API with acids and solvents, XRPD measurement; set-up: key: NKP means no crystalline phase; KFA means free acid crystallizes; conditions: API + acid
Procedure: The molar ratio between the H^+ concentration of the acid and of the API is 2 (for details see table 2). In each cavity of the microtiter plate, 68 microliters of the dissolved API are mixed with 40 microliters of the 0.1 normal acid solutions.
68 microliters of the dissolved API are pipetted into each cavity of a 96 microtiter plate. Then, in each case 40 microliters of the acids dissolved as in table 2 are added according to the scheme as detailed in table 3. The microtiter plate is shaken at room temperature for 20 min so that an equilibrium is formed in the cavities. Evaporation of the solvents at room temperature in a stream of nitrogen for 2 hours. Then, in each case 40 microliters of the solvents according to the scheme as detailed in table 3 are added. The microtiter plate is shaken at room temperature for 20 min so that an equilibrium is formed in the cavities. Evaporation of the solvent then takes place at room temperature in a stream of nitrogen for 2 hours. Finally, XRPD measurement is carried out.

CCOC(=O)[C@H](Cc1ccc(N)nc1)c1cn(C2CCCCC2)cn1 [Example 1, crystalline salt of (R)-3-(6-aminopyridin-3-yl)-2-(1-cyclohexyl-1H-imidazol-4-yl)propionic acid ethyl ester with naphthalene-1,5-disulfonic acid]
XRPD measurements at the start and after 14 days [1]: close together | increase of the (S) enantiomer ([2]; 14 days, 50° C. (A)): 0.2% | increase of the (S) enantiomer ([2]; 14 days, 50° C. and 80% relative atmospheric humidity (B)): 0.2% | change of enantiomeric purity ([2]; 14 days, 80° C. (C)): no change | increase of the (S) enantiomer ([2]; 14 days, 80° C. and 80% relative atmospheric humidity (D)): 2.7% | Enantiomeric purity ([2]; 14 days, storage condition (A) 50° C.): 98.8% | Enantiomeric purity ([2]; 14 days, storage condition (B) 50° C. and 80% relative atmospheric humidity): 98.8% | Enantiomeric purity ([2]; 14 days, storage condition (C) 80° C.): 99.0% | Enantiomeric purity ([2]; 14 days, storage condition (D) 80° C. and 80% relative atmospheric humidity): 96.3% | Enantiomeric purity ([2]; at the start of the measurement): 99.0%

Adipic acid
XRPD result of salt screening ([3]; solvent 2-Methyl-1-propanol): KFA | XRPD result of salt screening ([3]; solvent 2-Propanol): KFA | XRPD result of salt screening ([3]; solvent Butyl acetate): KFA | XRPD result of salt screening ([3]; solvent Ethanol): KFA | XRPD result of salt screening ([3]; solvent Methanol): KFA | XRPD result of salt screening ([3]; solvent Methyl ethyl ketone): KFA | XRPD result of salt screening ([3]; solvent Water): KFA | XRPD result of salt screening ([3]; solvent Water:methanol 1:1): NKP

Benzoic acid
XRPD result of salt screening ([3]; solvent 2-Methyl-1-propanol): KFA | XRPD result of salt screening ([3]; solvent 2-Propanol): KFA | XRPD result of salt screening ([3]; solvent Butyl acetate): KFA | XRPD result of salt screening ([3]; solvent Ethanol): KFA | XRPD result of salt screening ([3]; solvent Methanol): KFA | XRPD result of salt screening ([3]; solvent Methyl ethyl ketone): KFA | XRPD result of salt screening ([3]; solvent Water): KFA | XRPD result of salt screening ([3]; solvent Water:methanol 1:1): NKP

Citric acid
XRPD result of salt screening ([3]; solvent 2-Methyl-1-propanol): NKP | XRPD result of salt screening ([3]; solvent 2-Propanol): NKP | XRPD result of salt screening ([3]; solvent Butyl acetate): NKP | XRPD result of salt screening ([3]; solvent Ethanol): NKP | XRPD result of salt screening ([3]; solvent Methanol): NKP | XRPD result of salt screening ([3]; solvent Methyl ethyl ketone): NKP | XRPD result of salt screening ([3]; solvent Water): NKP | XRPD result of salt screening ([3]; solvent Water:methanol 1:1): NKP

Fumaric acid
XRPD result of salt screening ([3]; solvent 2-Methyl-1-propanol): NKP | XRPD result of salt screening ([3]; solvent 2-Propanol): NKP | XRPD result of salt screening ([3]; solvent Butyl acetate): NKP | XRPD result of salt screening ([3]; solvent Ethanol): NKP | XRPD result of salt screening ([3]; solvent Methanol): NKP | XRPD result of salt screening ([3]; solvent Methyl ethyl ketone): NKP | XRPD result of salt screening ([3]; solvent Water): NKP | XRPD result of salt screening ([3]; solvent Water:methanol 1:1): NKP

Glucuronic acid
XRPD result of salt screening ([3]; solvent 2-Methyl-1-propanol): NKP | XRPD result of salt screening ([3]; solvent 2-Propanol): NKP | XRPD result of salt screening ([3]; solvent Butyl acetate): NKP | XRPD result of salt screening ([3]; solvent Ethanol): NKP | XRPD result of salt screening ([3]; solvent Methanol): NKP | XRPD result of salt screening ([3]; solvent Methyl ethyl ketone): NKP | XRPD result of salt screening ([3]; solvent Water): NKP | XRPD result of salt screening ([3]; solvent Water:methanol 1:1): NKP

Malonic acid
XRPD result of salt screening ([3]; solvent 2-Methyl-1-propanol): NKP | XRPD result of salt screening ([3]; solvent 2-Propanol): NKP | XRPD result of salt screening ([3]; solvent Butyl acetate): NKP | XRPD result of salt screening ([3]; solvent Ethanol): NKP | XRPD result of salt screening ([3]; solvent Methanol): NKP | XRPD result of salt screening ([3]; solvent Methyl ethyl ketone): NKP | XRPD result of salt screening ([3]; solvent Water): NKP | XRPD result of salt screening ([3]; solvent Water:methanol 1:1): NKP

Sulfuric acid
XRPD result of salt screening ([3]; solvent 2-Methyl-1-propanol): NKP | XRPD result of salt screening ([3]; solvent 2-Propanol): NKP | XRPD result of salt screening ([3]; solvent Butyl acetate): NKP | XRPD result of salt screening ([3]; solvent Ethanol): NKP | XRPD result of salt screening ([3]; solvent Methanol): NKP | XRPD result of salt screening ([3]; solvent Methyl ethyl ketone): NKP | XRPD result of salt screening ([3]; solvent Water): NKP | XRPD result of salt screening ([3]; solvent Water:methanol 1:1): NKP

Tartaric acid
XRPD result of salt screening ([3]; solvent 2-Methyl-1-propanol): NKP | XRPD result of salt screening ([3]; solvent 2-Propanol): NKP | XRPD result of salt screening ([3]; solvent Butyl acetate): NKP | XRPD result of salt screening ([3]; solvent Ethanol): NKP | XRPD result of salt screening ([3]; solvent Methanol): NKP | XRPD result of salt screening ([3]; solvent Methyl ethyl ketone): NKP | XRPD result of salt screening ([3]; solvent Water): NKP | XRPD result of salt screening ([3]; solvent Water:methanol 1:1): NKP

Reference: patent US9156815B2, “Salt of (R)-3-(6-amino-pyridin-3-yl)-2-(1-Cyclohexyl-1H-imidazol-4-yl) ethyl propionate” (Sanofi, priority 2011, dated 2015)
